Broadly, the IC50 is the point on the concentration scale where inhibition reaches its midpoint.

Common to all, as to format: cell-based
For one test, the system named is HeLa cells. Description: alamarBlue cell viability assay, HeLa. As to conditions: Homo sapiens, 72 h, read-out: HeLa IC50 ± SEM. An excerpt: (§1) Cell viability and proliferation assays were used to evaluate the in vitro cytotoxicity of all synthesised compounds in a variety of different cancer cell lines using the alamarBlue® viability assay and the results are presented in Table 1 and Table 2. The sensitivity of cancer cells to drugs can often be compromised by PIK3CA, Ras and BRAF mutations. To determine whether such mutations are critical to the efficacy of our new compounds we tested them in a range of cancerous cell lines expressing different mutations. Firstly, we used the HL-60 (human promyelocytic leukaemia, NRas mutated) cell line for general cytotoxicity screening of all compounds. […] Lastly, toxicity against MCF-10A, which is a non-tumorigenic epithelial cell line, was also assessed for one of the most promising compounds (4). The graphs representing the viability results with the HL-60, MCF-7, HeLa, HCT-116, and HKH-2 cancer cell lines for compound 1 and derivatives 2, 3, and 4 are shown in Figures S7–S10 (ESI).
(§2) Cells were counted and seeded in 96-well plates at a density of 2 × 10^5 cells/mL for HL-60, 2.5 × 10^4 cells/mL for MCF-7, MCF10A and HeLa, 1 × 10^5 cells/mL for HCT116 and HKH-2, all of them in their respective media. The 96-well plates were then treated with a 1:100 dilution of stock concentrations of drugs or EtOH (1% v/v)/DMSO (0.1% v/v) as vehicle control in triplicate. Three blank wells containing 200 µL RPMI with no cells were also set-up as blanks. After a 72 h incubation, 20 µL of alamarBlue was added to each well. The plates were incubated in darkness at 37 °C for 4–5 h using a Molecular Devices microplate reader, the fluorescence (F) was then read at an excitation wavelength of 544 nm and an emission wavelength of 590 nm. Cell viability was then determined by subtracting the mean blank fluorescence (Fb) from the treated sample fluorescence (Fs) and expressing this as a percentage of the fluorescence of the blanked vehicle control (Fc). […] The results were then plotted as a nonlinear regression, sigmoidal dose-response curves on Prism, from which the IC50 value for each drug was determined.
(§3) The MCF-7 (human breast tumour) cell line was obtained from Prof. Mary Meegan, School of Pharmacy, TCD. It was maintained in Roswell Park Memorial Institute (RPMI) 1640 medium with stable glutamate (GlutaMax I) supplemented with 10% (v/v) fetal bovine serum (FBS), 1% (v/v) penicillin/ streptomycin (pen-strep) and 2 mM L-glutamine.
(§4) The HeLa (human epitheloid cervix carcinoma) cell line was obtained from Prof. Thorfinnur Gunnlaugsson, School of Chemistry TCD. It was maintainedin Dulbecco's Modified Eagle's Medium (DMEM) supplemented with 10% (v/v) fetal bovine serum (FBS) and 1%(v/v) penicillin/ streptomycin (pen-strep).
(§5) The HCT116and HKH-2 (human colon cancer cells) cell lines were obtained from Prof. James Murray, School of Biochemistry and Immunology TCD. They were maintainedin Dulbecco's Modified Eagle's Medium (DMEM) supplemented with 10% (v/v) fetal bovine serum (FBS), 1% (v/v) penicillin/ streptomycin (pen-strep), 1% (v/v) sodium pyruvate (NaPyr), 1% (v/v) L-glutamine (L-Glu) and, only for HKH-2, 0.6 mg/mL geneticine (G418).
(§6) MCF-10A (human breast epithelial) cell line was obtained from Prof. Mary Meegan, School of Pharmacy, TCD. […]
(§7) Cells were counted and seeded in 96 well plates at a density of 2 × 10^5 cells/mL for HL-60, 2.5× 10^4 cells/mL for MCF-7, MCF10A and HeLa, 1 × 10^5 cells/mL for HCT116 and HKH-2, all of them in their respective media. […]
For orientation: Resazurin is reduced to fluorescent resorufin, in cell work by metabolically active cells.

The next test concerns HCT116 cells. Description: alamarBlue cell viability assay, HCT116. As to conditions: Homo sapiens, HCT-116, 72 h, KRas mutant, read-out: HCT116 IC50 ± SEM.
Source text: as §1, §2, §3, §4, §5, §6, §7

For another test, the system named is HKH-2 cells. The test is described as follows: alamarBlue cell viability assay, HKH-2. The note with it: Homo sapiens, 72 h, mutated KRas disrupted, read-out: HKH-2 IC50 ± SEM.
Source text: as §1, §2, §3, §4, §5, §6, §7

In the case of `Cl.N=C(N)Nc1ccc(Oc2cccc(Nc3ccc(Cl)c(C(F)(F)F)c3)c2)cn1` [Compound 4, 1-(5-(3-((4-Chloro-3-(trifluoromethyl)phenyl)amino)phenoxy)pyridin-2-yl)guanidine hydrochloride], the IC50 in the test on HeLa cells was found to be 1.33 ± 0.08 µM; in the test with HCT116 cells, 4.59 ± 0.4 µM; in the test on HKH-2 cells, 2.88 ± 0.15 µM.

On to `Cl.Cl.N=C(N)Nc1ccc(Oc2cccc(NC(=N)Nc3ccc(Cl)c(C(F)(F)F)c3)c2)cn1` [Compound 2, 1-(4-Chloro-3-(trifluoromethyl)phenyl)-3-(3-((6-guanidinopyridin-3-yl)oxy)phenyl) guanidine dihydrochloride], for which the IC50 with HeLa cells stood at 4.87 ± 0.27 µM; in the test on HCT116 cells, 7.29 ± 0.53 µM; with HKH-2 cells, 8.09 ± 0.78 µM.

For the compound `Cl.N=C(N)Nc1ccc(Oc2cccc(Nc3ccc(Cl)c(C(F)(F)F)c3)c2)cc1` [Compound 3, 1-(4-(3-((4-Chloro-3-(trifluoromethyl)phenyl)amino)phenoxy)phenyl)guanidine hydrochloride], the figures for the IC50 with HeLa cells, with HCT116 cells and in the test on HKH-2 cells were 4.33 ± 0.54 µM, 15.9 ± 2.73 µM and 10.3 ± 0.74 µM, respectively.
